Test results as given in article PMC5293562, “Engineering a trifunctional proline utilization A chimaera by fusing a DNA-binding domain to a bifunctional PutA” (Bioscience Reports, 2016).
Where two headings read alike, the source gives them in different places. Values belong to the molecule of their own block, whether it stands above or below them.

Legend:
EcRHH–RcPutA = system: T1, EcRHH–RcPutA; assay: stopped-flow, CoQ1 reduction at […] nm; assay type: biochemical, Rhodobacter capsulatus; conditions: 50 mM potassium phosphate pH 7.5, 25 mM NaCl, 23°C
T1 construct: gene putA; single polypeptide: E. coli PutA RHH domain (residues 1-52) fused via NdeI linker to N-terminus of full-length R. capsulatus PutA; 1180 aa; N-terminal His6 tag retained; pET28a, E. coli BL21(DE3) pLysS; homodimer, 126 kDa monomer

[1] = system: EcRHH-RcPutA chimaera (Escherichia coli / Rhodobacter capsulatus (chimaera)); assay: EMSA; conditions: EMSA with 3 nM IRdye-700 put control DNA, 100 ug/ml calf thymus DNA, non-denaturing 4% polyacrylamide gel; binding buffer, salt, pH and temperature not given …
[2] = molecular target: EcRHH–RcPutA chimaera (RHH domain of Escherichia coli PutA fused to the N-terminus of Rhodobacter capsulatus PutA) (Escherichia coli | Rhodobacter capsulatus) (UniProt P09546); assay: AUC; sedimentation equilibrium, 0.2, 0.5 and 0.8 mg/ml, 8000 rpm, 50 mM Tris pH 7.5, 100 mM NaCl, 0.5 mM EDTA, 5% glycerol; global fit to an ideal single-species model
[3] = molecular target: EcRHH–RcPutA chimaera (RHH domain of Escherichia coli PutA fused to the N-terminus of Rhodobacter capsulatus PutA) (Escherichia coli | Rhodobacter capsulatus) (UniProt P09546); assay: SAXS; three protein concentrations after size exclusion chromatography in 50 mM Tris, 200 mM NaCl, 0.5 mM THP, pH 7.5; mass from volume of correlation and Porod-Debye analysis; shape reconstruction with 2-fold symmetry
RcPutA = molecular target: T2, RcPutA (Rhodobacter capsulatus, UniProt D5AN87); conditions: 50 mM proline reduces flavin; anaerobic; HEPES pH 7.5, 150 mM NaCl; room temperature
T2 construct: gene putA
T2 sequence (D5AN87 1-1127): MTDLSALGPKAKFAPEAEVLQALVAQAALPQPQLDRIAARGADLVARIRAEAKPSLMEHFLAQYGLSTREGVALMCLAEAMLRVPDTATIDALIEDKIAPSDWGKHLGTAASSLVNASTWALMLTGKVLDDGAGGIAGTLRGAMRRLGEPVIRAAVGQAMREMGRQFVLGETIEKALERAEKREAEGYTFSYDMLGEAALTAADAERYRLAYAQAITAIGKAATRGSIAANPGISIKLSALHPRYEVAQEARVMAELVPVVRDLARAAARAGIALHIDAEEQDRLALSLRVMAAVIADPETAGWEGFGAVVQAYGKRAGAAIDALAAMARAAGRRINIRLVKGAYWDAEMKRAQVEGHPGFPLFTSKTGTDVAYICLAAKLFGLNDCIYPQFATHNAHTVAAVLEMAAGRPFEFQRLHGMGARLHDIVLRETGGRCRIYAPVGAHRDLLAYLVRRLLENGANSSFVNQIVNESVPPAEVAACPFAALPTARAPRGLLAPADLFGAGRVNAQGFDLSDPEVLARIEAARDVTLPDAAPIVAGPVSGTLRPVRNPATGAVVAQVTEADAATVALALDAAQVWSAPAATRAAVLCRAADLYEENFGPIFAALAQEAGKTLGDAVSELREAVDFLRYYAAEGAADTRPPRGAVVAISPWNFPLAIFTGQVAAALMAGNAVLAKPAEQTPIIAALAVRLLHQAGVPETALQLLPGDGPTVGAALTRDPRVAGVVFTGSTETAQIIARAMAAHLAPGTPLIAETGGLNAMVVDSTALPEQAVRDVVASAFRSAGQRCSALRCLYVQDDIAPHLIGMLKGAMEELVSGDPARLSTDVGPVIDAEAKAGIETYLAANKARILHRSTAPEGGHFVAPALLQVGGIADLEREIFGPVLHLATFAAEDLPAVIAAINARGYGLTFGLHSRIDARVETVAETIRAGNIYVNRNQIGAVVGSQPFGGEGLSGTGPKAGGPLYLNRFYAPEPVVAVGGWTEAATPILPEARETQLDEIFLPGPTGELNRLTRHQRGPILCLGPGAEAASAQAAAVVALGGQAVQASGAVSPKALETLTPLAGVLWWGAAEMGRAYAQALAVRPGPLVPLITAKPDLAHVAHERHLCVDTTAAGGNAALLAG

EcPutA = molecular target: T3, EcPutA (Escherichia coli, UniProt P09546); conditions: 50 mM proline reduces flavin; anaerobic; HEPES pH 7.5, 150 mM NaCl; room temperature
T3 construct: gene putA
T3 sequence (P09546 whole entry): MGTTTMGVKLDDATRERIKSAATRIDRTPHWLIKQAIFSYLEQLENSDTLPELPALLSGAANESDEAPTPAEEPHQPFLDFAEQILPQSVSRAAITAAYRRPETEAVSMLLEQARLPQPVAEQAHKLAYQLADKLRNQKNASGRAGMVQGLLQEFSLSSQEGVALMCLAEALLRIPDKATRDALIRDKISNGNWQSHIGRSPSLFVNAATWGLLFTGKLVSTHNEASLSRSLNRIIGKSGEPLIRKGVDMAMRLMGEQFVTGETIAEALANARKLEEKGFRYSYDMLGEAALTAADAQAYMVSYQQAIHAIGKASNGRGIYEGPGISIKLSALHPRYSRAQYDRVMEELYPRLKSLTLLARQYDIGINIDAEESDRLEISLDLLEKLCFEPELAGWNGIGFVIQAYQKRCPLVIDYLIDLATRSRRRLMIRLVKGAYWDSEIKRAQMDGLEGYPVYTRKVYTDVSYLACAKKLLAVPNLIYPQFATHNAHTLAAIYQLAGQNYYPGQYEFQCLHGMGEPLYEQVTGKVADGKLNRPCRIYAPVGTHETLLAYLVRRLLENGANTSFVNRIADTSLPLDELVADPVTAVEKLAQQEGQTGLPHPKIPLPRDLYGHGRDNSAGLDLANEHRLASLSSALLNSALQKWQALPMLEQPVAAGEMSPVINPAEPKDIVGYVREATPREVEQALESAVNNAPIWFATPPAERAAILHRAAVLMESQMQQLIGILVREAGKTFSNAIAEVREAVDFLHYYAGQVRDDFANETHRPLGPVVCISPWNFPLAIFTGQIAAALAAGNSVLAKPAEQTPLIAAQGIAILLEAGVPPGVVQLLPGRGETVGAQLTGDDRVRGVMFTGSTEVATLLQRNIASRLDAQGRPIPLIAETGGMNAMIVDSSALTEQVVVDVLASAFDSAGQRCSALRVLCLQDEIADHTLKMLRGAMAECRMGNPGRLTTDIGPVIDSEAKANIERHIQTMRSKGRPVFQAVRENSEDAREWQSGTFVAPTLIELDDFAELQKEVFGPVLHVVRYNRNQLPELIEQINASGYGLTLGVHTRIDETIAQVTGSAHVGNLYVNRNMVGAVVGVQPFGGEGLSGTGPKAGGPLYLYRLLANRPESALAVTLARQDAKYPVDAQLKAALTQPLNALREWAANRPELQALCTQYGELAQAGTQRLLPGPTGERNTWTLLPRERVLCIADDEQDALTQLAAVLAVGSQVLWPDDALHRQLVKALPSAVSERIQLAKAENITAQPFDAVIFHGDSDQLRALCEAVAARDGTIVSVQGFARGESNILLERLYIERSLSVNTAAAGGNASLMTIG

EcRHH–RcPutA chimaera (RHH domain of Escherichia coli PutA fused to the N-terminus of Rhodobacter capsulatus PutA), sequence (P09546 whole entry, the tested form may be a part): as the sequence (P09546 whole entry) above

Km (EcRHH–RcPutA; PRODH electron acceptor, 200 mM proline, read-out: Proline / Km): 0.161 ± 0.0158 mM
Molecule: COC1=C(OC)C(=O)C(CC=C(C)C)=C(C)C1=O [CoQ1]

Molecule: put control DNA (420 bp)
Kd [1]: 58 nM

stoichiometry N [2]: 2
stoichiometry N [3]: 2
Molecule: EcRHH–RcPutA chimaera (RHH domain of Escherichia coli PutA fused to the N-terminus of Rhodobacter capsulatus PutA) (from UniProt P09546 1-52) (enzyme)

Km (EcRHH–RcPutA; PRODH site, 300 μM CoQ1, read-out: Km): 5.3 ± 0.9 mM
Molecule: O=C(O)[C@@H]1CCCN1 [proline]
lipid pull-down (E. coli polar lipid vesicles), SDS/PAGE (RcPutA): In the presence of proline, RcPutA and EcRHH–RcPutA significantly partition into the lipid fraction
lipid pull-down (E. coli polar lipid vesicles), SDS/PAGE (EcPutA): RcPutA, EcRHH–RcPutA and EcPutA were incubated with E. coli polar lipid vesicles
